In paper doi:10.1101/2024.05.17.594634, “Protein Structure Inspired Drug Discovery” (bioRxiv, 2024):

Assays:
A549 lung cancer cells = assay: Eight-day colony formation assay, A549; type: cell-based, human
Description: (§1) We sought to identify compounds that would inhibit the growth of cancer cells, but that also did so selectively. Inhibition of cancer cell growth is a highly sought after attribute of anticancer agents. This was assessed by measuring the ability of a compound to inhibit cell growth in eight-day colony formation assays, examining concentrations ranging from 0.017 to 40 μM. Breast, colon, lung and prostate cancer are four of the most common causes of cancer in the United States, are major causes of cancer cell death, and were examined.[64] Two cell lines for each cancer type were assessed: A549 (adenocarcinoma) and H226 (squamous carcinoma) for lung, MCF-7 (estrogen receptor [ER] positive) and MDA-MB-231 (ER negative) for breast, LNCaP (androgen receptor [AR] positive) and PC3-M (AR negative) for prostate, and HCT116 (wild type p53, mutated KRAS) and HT29 (p53 mutant) for colon.[65]
(§2) In considering effect on cancer cells, for each compound and each cell line tested we calculated the efficacy ratio, i.e., efficacy ratio = (percent of remaining cancer cell colonies)/(percent of remaining bone marrow colonies), at 8 days after treatment with 40 μM compound (S4 Fig). We considered those with an efficacy ratio below 0.5 as active and at least partially selective. The stringency of this is highlighted by considering the effect of 5FU on colon cancer, where it is frequently used clinically in proven curative settings, as well as proven life prolonging settings.[70, 71] […] Even at 5.7 μM, where 5FU is toxic to bone marrow, with hematopoietic colony formation at 38% of control, the efficacy ratio for HT29 cells has only dropped to 0.52. […] It can be seen that compounds segregate to protein sites. Specifically, of 10 compounds meeting this activity criteria (i.e., efficacy ratio <0.5), 3 were directed at the Dxr2 site, 3 at FolC2, 2 at FolC1, 1 at Dxr1 and 1 at TYLT.
(§3) Eight-day colony formation assays of cancer cells were performed as described by us.[87] Briefly, 0.5–1.0 × 10^3 cells were seeded into a 12 well plate, after 24 hours compound added and eight days later colonies (of 3 or more cells) were scored after trypan blue staining. Conditions were in replicates of N = 2. All compounds were stored under desiccated conditions in a sealed container at minus 20°C upon arrival. One day prior to use, they were placed into DMSO, stored at […] as stock solutions, thawed just prior to use, and not reused.

[1] = test system: LNCaP prostate cancer cells; assay: Eight-day colony formation assay, LNCaP; type: cell-based, human
Description: as §1, §2, §3

melanoma cell lines = assay: NCI-60 cell line screen, melanoma cell lines; type: cell-based, human; conditions: 10 μM X 48 hours
Description: (§4) Above findings support the importance of Dxr2 and FolC2 sites, and of Dxr2-017 and FolC2-001 compounds, respectively. The predicted poses of Dxr2-017 bound to the Dxr2 site and FolC2-001 bound to the FolC2 site are shown (Fig 7). The NCI-60 cell line screen evaluates compound growth inhibition and cell toxicity in a highly standardized manner across 60 different cell lines. Dxr2-017 and FolC2-001 were evaluated in this assay (S5 Fig). NCI-60 screens evaluate compounds at 10 μM X 48 hours. […] Of high interest, in the NCI-60 screen Dxr2-017 had relatively high activity against melanoma cell lines, inducing cell death in 5 cell lines ranging from 25–65%, and inhibiting growth in 4 cell lines ranging from 76–96%. Its impact on cell death represents the most striking relative difference in response across cell lines.

human melanoma M14 cells = assay: Eight-day colony formation assay, M14; type: cell-based; conditions: for IC50: M14, eight-day assay, mean ± SEM
Description: We next evaluated the effect of Dxr2-017 on human melanoma M14 and SK-MEL-5 cell lines in eight-day assays (Fig 8A).
(§5) Fig 8. Dxr2-017 inhibits melanoma cell growth through induction of anoikis. (A) Inhibition of melanoma cell growth. Cells were treated with different concentrations of Dxr2-017 and formation of colonies at eight days depicted. Data are expressed as percent of untreated control and are the mean ± SEM (N=3 replicates) of a single experiment. (B) No effect on cycle progression. M14 and SK-MEL-5 cells were treated for 8 days with 20 and 50 nM Dxr2-017, respectively, and phase of cell cycle determined by flow cytometry. Data are the mean ± SEM (N=3). *denotes P-value ≤0.05. (C) Transition to floating cells. Cells were treated for three days with different Dxr2-017 concentrations. Depicted are representative light photomicrographs at 20X; scale bar is150 μm. Blue and green arrows denote adherent and floating cells, respectively. (D) Cleaved caspase 3 is induced in floating cells. Cells were treated for 3 days, cell lysate from only adherent cells, or from adherent and floating cells combined, was probed by Western blot for cleaved caspase 3. All experiments were repeated at separate times, yielding similar results.
as §3

M14 cells = assay: Cell cycle analysis by flow cytometry, M14; type: cell-based, human; conditions: 20 nM, eight days
Description: as §5
(§6) A total of 1 × 10^4 M14 cells and 1 × 10^4 SK-MEL-5 cells were seeded into 10 cm culture dishes. […] Cells were analyzed by flow cytometry (FACSCalibur3 analyzer, BD Biosciences), and the percentage of cells within G0/G1, S, and G2/M phases were determined via analysis using Modfit LT 4.0.5.

HT29 colon cancer cells = assay: Eight-day colony formation assay, HT29; type: cell-based, human
Description: as §1, §2, §3

[2] = test system: HT29, MDA-MB-231 and H226; assay: NCI-60 cell line screen, other cell lines; type: cell-based, human; conditions: 10 μM X 48 hours
Description: as §4

SK-MEL-5 cells = assay: Cell cycle analysis by flow cytometry, SK-MEL-5; type: cell-based, human; conditions: 50 nM, eight days
Description: as §5, §6

SMILES: c1ccc2sc(-c3ccc(CNc4ccc5nnnn5n4)o3)nc2c1 [Dxr2-017]
- efficacy ratio (cancer cell colonies to bone marrow colonies at 8 days) (A549 lung cancer cells; 5.7 μM): 1.26
- efficacy ratio (cancer cell colonies to bone marrow colonies at 8 days) (A549 lung cancer cells; 40 μM): 0.07
- efficacy ratio (cancer cell colonies to bone marrow colonies at 8 days) ([1]; 5.7 μM): 0.49
- efficacy ratio (cancer cell colonies to bone marrow colonies at 8 days) ([1]; 40 μM): 0.05
- cell death (melanoma cell lines; range over 5 melanoma cell lines): 25–65%
- inhibition at 10 µM (melanoma cell lines; Homo sapiens, range over 4 melanoma cell lines, read-out: growth inhibition): 76 to 96%
- IC50 (human melanoma M14 cells; Homo sapiens, M14, 192 h): 19 nM
- IC50 (human melanoma M14 cells): 19.7 ± 7.4 nM
- fold efficacy versus bone marrow stem cells (human melanoma M14 cells; M14 IC50 compared to 40 μM eight-day bone marrow treatment): over 2100 fold
- change in cell cycle parameters (M14 cells): little-to-no change in cell cycle parameters
- efficacy ratio (cancer cell colonies to bone marrow colonies at 8 days) (HT29 colon cancer cells; 5.7 μM): 0.03
- efficacy ratio (cancer cell colonies to bone marrow colonies at 8 days) (HT29 colon cancer cells; 40 μM): 0.00
- inhibition at 0.12 µM (HT29 colon cancer cells; Homo sapiens, HT-29, 0.12 μM, mean ± SD, read-out: inhibition of colony formation compared to control): 91.1 ± 4.8%
- activity in NCI-60 screen [2]: activity against HT29, MDA-MB-231 and H226
- change in cell cycle parameters (SK-MEL-5 cells): little-to-no change in cell cycle parameters
